Key:
[1] = tested on: annual bluegrass (Poa Annua); assay: Percent control of annual bluegrass (browning, necrosis, melt-down, plant death); format: in vivo
Method: (§1) In this evaluation, annual bluegrass (Poa Annua) was grown, and the compounds were applied at various growth stages of the annual bluegrass as depicted in Table Ia using a randomized complete block design of four replications with ten treatments including one untreated control. The compounds were applied using water as the carrier. The results shown in Table Ib depict control of annual bluegrass, which includes browning, necrosis, melt-down and plant death. The results shown in Table Ic depict the amount of seeds on the plants and on the ground for the various treatments.

[2] = tested on: annual bluegrass (Poa Annua); assay: Seed/biomass effect on annual bluegrass at Day 212; format: in vivo; conditions: for Biomass Dry Weight: control (none) 251
Method: as §1

Compound: CCC(=O)C1=C([O-])CC(C(=O)[O-])CC1=O.[Ca+2] (centres unmarked) [Prohexadione-Calcium, calsium 3,5-dioxo-4-(1-oxopropyl)cyclohexanecarboxylate]
- % Control at Days After First Treatment (DAT) ([1]; 17 DAT, application time A (seedling, day 1), rate 0.125 lb/A (140)): 0%
- % Control at Days After First Treatment (DAT) ([1]; 17 DAT, application times A + B (seedling, days 1 and 15), rate A = 0.125 (140) + B = 0.125 (140) lb/A): 0%
- % Control at Days After First Treatment (DAT) ([1]; 43 DAT, application time A (seedling, day 1), rate 0.125 lb/A (140)): 0%
- % Control at Days After First Treatment (DAT) ([1]; 43 DAT, application time C (tillering, day 35), rate 0.125 lb/A (140)): 0%
- % Control at Days After First Treatment (DAT) ([1]; 43 DAT, application times A + B (seedling, days 1 and 15), rate A = 0.125 (140) + B = 0.125 (140) lb/A): 0%
- % Control at Days After First Treatment (DAT) ([1]; 77 DAT, application time A (seedling, day 1), rate 0.125 lb/A (140)): 0%
- % Control at Days After First Treatment (DAT) ([1]; 77 DAT, application time C (tillering, day 35), rate 0.125 lb/A (140)): 0%
- % Control at Days After First Treatment (DAT) ([1]; 77 DAT, application times A + B (seedling, days 1 and 15), rate A = 0.125 (140) + B = 0.125 (140) lb/A): 0%
- % Control at Days After First Treatment (DAT) ([1]; 77 DAT, application times C + D (tillering, days 35 and 51), rate C = 0.125 (140) + D = 0.125 (140) lb/A): 0%
- % Control at Days After First Treatment (DAT) ([1]; 151 DAT, application time A (seedling, day 1), rate 0.125 lb/A (140)): 0%
- % Control at Days After First Treatment (DAT) ([1]; 151 DAT, application time C (tillering, day 35), rate 0.125 lb/A (140)): 0%
- % Control at Days After First Treatment (DAT) ([1]; 151 DAT, application times A + B (seedling, days 1 and 15), rate A = 0.125 (140) + B = 0.125 (140) lb/A): 0%
- % Control at Days After First Treatment (DAT) ([1]; 151 DAT, application times C + D (tillering, days 35 and 51), rate C = 0.125 (140) + D = 0.125 (140) lb/A): 0%
- % Control at Days After First Treatment (DAT) ([1]; 172 DAT, application time A (seedling, day 1), rate 0.125 lb/A (140)): 0%
- % Control at Days After First Treatment (DAT) ([1]; 172 DAT, application time C (tillering, day 35), rate 0.125 lb/A (140)): 0%
- % Control at Days After First Treatment (DAT) ([1]; 172 DAT, application time F (flowering to soft dough, day 155), rate 0.250 lb/A (280)): 60%
- % Control at Days After First Treatment (DAT) ([1]; 172 DAT, application times A + B (seedling, days 1 and 15), rate A = 0.125 (140) + B = 0.125 (140) lb/A): 0%
- % Control at Days After First Treatment (DAT) ([1]; 172 DAT, application times C + D (tillering, days 35 and 51), rate C = 0.125 (140) + D = 0.125 (140) lb/A): 0%
- % Control at Days After First Treatment (DAT) ([1]; 204 DAT, application time A (seedling, day 1), rate 0.125 lb/A (140)): 0%
- % Control at Days After First Treatment (DAT) ([1]; 204 DAT, application time C (tillering, day 35), rate 0.125 lb/A (140)): 0%
- % Control at Days After First Treatment (DAT) ([1]; 204 DAT, application time F (flowering to soft dough, day 155), rate 0.250 lb/A (280)): 95%
- % Control at Days After First Treatment (DAT) ([1]; 204 DAT, application times A + B (seedling, days 1 and 15), rate A = 0.125 (140) + B = 0.125 (140) lb/A): 0%
- % Control at Days After First Treatment (DAT) ([1]; 204 DAT, application times C + D (tillering, days 35 and 51), rate C = 0.125 (140) + D = 0.125 (140) lb/A): 0%
- Seeds on Ground ([2]; application time F, prohexadione-calcium treatment, control (none) 30): 50 g/5 sq ft
- Seeds on Plant ([2]; application time F, prohexadione-calcium treatment, control (none) 37): 34 g/5 sq ft
- Biomass Dry Weight ([2]; application time F, prohexadione-calcium treatment): 188 g/5 sq ft
- Seeds on Ground ([2]; application time F, prohexadione-calcium treatment, control (none) 669): 583 seeds/0.3 g
- Seeds on Plant ([2]; application time F, prohexadione-calcium treatment, control (none) 864): 822 seeds/0.3 g

Compound: CP(=O)(O)CCC(N)C(=O)O (centres unmarked) [Glufosinate-Ammonium, 2-amino-4-(hydoxymethylphosphinyl)butanoic acid]
- % Control at Days After First Treatment (DAT) ([1]; 17 DAT, application time A (seedling, day 1), rate 0.375 lb/A (420)): 80%
- % Control at Days After First Treatment (DAT) ([1]; 43 DAT, application time A (seedling, day 1), rate 0.375 lb/A (420)): 80%
- % Control at Days After First Treatment (DAT) ([1]; 43 DAT, application time C (tillering, day 35), rate 0.375 lb/A (420)): 10%
- % Control at Days After First Treatment (DAT) ([1]; 77 DAT, application time A (seedling, day 1), rate 0.375 lb/A (420)): 74%
- % Control at Days After First Treatment (DAT) ([1]; 77 DAT, application time C (tillering, day 35), rate 0.375 lb/A (420)): 96%
- % Control at Days After First Treatment (DAT) ([1]; 151 DAT, application time A (seedling, day 1), rate 0.375 lb/A (420)): 33%
- % Control at Days After First Treatment (DAT) ([1]; 151 DAT, application time C (tillering, day 35), rate 0.375 lb/A (420)): 74%
- % Control at Days After First Treatment (DAT) ([1]; 151 DAT, application time E (flowering, day 136), rate 0.375 lb/A (420)): 93%
- % Control at Days After First Treatment (DAT) ([1]; 172 DAT, application time A (seedling, day 1), rate 0.375 lb/A (420)): 3%
- % Control at Days After First Treatment (DAT) ([1]; 172 DAT, application time C (tillering, day 35), rate 0.375 lb/A (420)): 45%
- % Control at Days After First Treatment (DAT) ([1]; 172 DAT, application time E (flowering, day 136), rate 0.375 lb/A (420)): 65%
- % Control at Days After First Treatment (DAT) ([1]; 204 DAT, application time A (seedling, day 1), rate 0.375 lb/A (420)): 0%
- % Control at Days After First Treatment (DAT) ([1]; 204 DAT, application time C (tillering, day 35), rate 0.375 lb/A (420)): 18%
- % Control at Days After First Treatment (DAT) ([1]; 204 DAT, application time E (flowering, day 136), rate 0.375 lb/A (420)): 8%
- Seeds on Ground ([2]; application time E, control (none) 30): 34 g/5 sq ft
- Seeds on Plant ([2]; application time E, control (none) 37): 32 g/5 sq ft
- Biomass Dry Weight ([2]; application time E): 184 g/5 sq ft
- Seeds on Ground ([2]; application time E, control (none) 669): 816 seeds/0.3 g
- Seeds on Plant ([2]; application time E, control (none) 864): 1000 seeds/0.3 g

— patent publication US6727205B2, “Plant growth regulators and methods for control and/or suppression of annual bluegrass” (BASF Aktiengesellschaft, priority 2001, dated 2004)
